# Experimental data from patent US20060216820A1, “Use of retinoic esters of hyaluronic acid for the differentiation of totipotent stem cells” (SINTOFARM S.P.A., priority 2003, published 2006).
# Assays:
# [1] = tested on: human totipotent stem cells; settings: totipotent stem cells (Xu et al. 2002); cited from earlier work
# P19 cells = settings: cited from earlier work
# GTR1 stem cells [2] = test: RT-PCR detection of cardiospecific transcripts (MHC, MLC) in GTR1 cells; type: cell-based, murine; settings: 1 μM chelerithrine with retinoic esters of hyaluronic acid 0.75 mg/ml, 10 days; puromycin-selected cardiomyocytes
# Excerpt: Analysis of gene expression. Total RNA has been extracted from stem cells as described by Ventura et al. (Ventura C et al. J Biol. Chem. 1997; 272: 6685-6692). The levels of specific mRNAs have been analyzed by “RNase protection”, using [^32P]CTP radiolabeled cRNA probes (antisense mRNA) specific for each transcript of interest, according to a previously described protocol (Ventura C et al. J Biol. Chem. 1997; 272:6685-6692). Briefly, fragments corresponding to the main exons of GATA-4 (292 bp), Nkx-2.5 (414 bp) and prodynorphin (424 bp) genes have been inserted in the vector pCRII-TOPO (Invitrdgen). Transcription of the vector linearized With ApaI, BamHI, or XbaI respectively generated sense strand mRNA of prodynorphin, GATA-4, or Nkx-2.5. Transcription in presence of [^32P]CTP of the plasmid linearized with BamHI produced the antisense mRNA strand of prodynorphin and Nkx-2.5, while transcription of the vector linearized with XbaI generated the antisense mRNA strand of GATA-4. In some experiments the analysis of mRNA expression has been performed by means of RT-PCR, as described in (Ventura C, Maioli M. Circ Res. 2000:87:189-194).
# GTR1 stem cells were used in these studies. […]
# GTR1 stem cells [3] = test: In vitro nuclear run-off transcription in nuclei from treated GTR1 cells; type: cell-based, murine; settings: 1 μM chelerithrine with retinoic esters of hyaluronic acid 0.75 mg/ml, 10 days; puromycin-selected cardiomyocytes
# Excerpt: Gene transcription studies. Gene transcription rate has been analyzed in nuclei isolated by an approach of “in vitro nuclear run-off transcription”, previously described (Ventura C., J Biol Chem. 1997; 272:6685-6692.; Ventura C. et al. J Biol. Chem. 1998; 273:13383-13386.). Briefly, nuclei have been resuspended in buffer containing 50 mmol/L Tris/HCl, pH 8.0, 5 mmol/L MgCl2, 0.1 mmol/L EDTA, 40% glycerol, 0.1 mmol/L dithiothreitol, 0.5 mmol/L phenylmethylsulfonylfluoride, 1 μmol/L leupeptin, and 10 mmol/L β-mercaptoethanol. 100 μl of 2× reaction buffer (10 mmol/L Tris/HCl, pH 7.5, 5 mmol/L MgCl2, 0.3 mol/L KCl, 5 mmol/L dithiothreitol, 1 mmol/L of ATP, GTP, and CTP), and 5 μl of [α-^32P]UTP (3000 Ci/mmol) have been added to the nuclear suspension (90 μl). Samples were then incubated at room temperature for 15 min. The reaction has been stopped by digesting the DNA in presence of RNase-free DNase. The nuclear RNA has been isolated as described in Ventura C et al. J Biol Chem. 1997; 272:6685-6692. Approximately 5×10^6 cpm of ^32P labeled nuclear RNA were hybridized for 12 hours at 55° C. in presence of cold (not radioactive) probes of antisense mRNA of GATA-4, Nkx-2.5 or prodynorphin, generated, as described above, in absence of radiolabeled ribonucleotides. […]
Compound,percentage of totipotent stem cells undergoing cardiomyocyte differentiation [1],cells that differentiate in embryonic cardiomyocytes (P19 cells; P19 cells in presence of DMSO),overall efficiency of cardiogenic effect (P19 cells; pluripotent murine cells in vitro),"effect of chelerithrine on the ester-induced expression of cardiospecific genes (MHC, MLC) (GTR1 stem cells [2])","effect of chelerithrine on the ester-induced expression/transcription of cardiogenic genes (GATA-4, Nkx-2.5, prodynorphin) (GTR1 stem cells [3])"
"C[S+](C)[O-] [DMSO, dimethylsulfoxide]",unable to produce a significant increase,15-20%,rather low,,
COc1ccc2c(c[n+](C)c3c4cc5c(cc4ccc23)OCO5)c1OC [chelerithrine],,,,antagonized,antagonized
